Laboratory results taken from patent publication US7858640B2, “Quinolines and their therapeutic use” (Pulmagen Therapeutics (Asthma) Limited, priority 2005, dated 2010).

Target: T1, CRTH2 receptor (Homo sapiens, UniProt Q9Y5Y4)
T1 sequence (Q9Y5Y4 1-395): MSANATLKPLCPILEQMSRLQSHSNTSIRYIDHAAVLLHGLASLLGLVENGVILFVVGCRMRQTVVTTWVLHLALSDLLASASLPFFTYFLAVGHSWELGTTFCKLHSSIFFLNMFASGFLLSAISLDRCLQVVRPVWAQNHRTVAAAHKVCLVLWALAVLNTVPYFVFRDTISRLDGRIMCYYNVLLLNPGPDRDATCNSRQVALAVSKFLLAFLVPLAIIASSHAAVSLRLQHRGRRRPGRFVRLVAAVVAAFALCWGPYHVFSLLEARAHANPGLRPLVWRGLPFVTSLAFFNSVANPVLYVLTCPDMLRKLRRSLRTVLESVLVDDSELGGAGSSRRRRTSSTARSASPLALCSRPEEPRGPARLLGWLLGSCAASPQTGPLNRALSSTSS
Assay: Radioligand binding assay ([3H]-PGD2 displacement, SPA)
Set-up: expressed in transfected cells; host or cells: HEK cell membranes
Settings: HEK cell membranes expressing the CRTH2 receptor, 1 nM [3H]-PGD2; Ki from IC50 by Cheng-Prusoff
Protocol: Radioligand Binding Assay
The receptor binding assay is performed in a final volume of 200 μL binding buffer [10 mM BES (pH 7.4), 1 mM EDTA, 10 mM manganese chloride, 0.01% BSA] and 1 nM [^3H]-PGD2 (Amersham Biosciences UK Ltd). Ligands are added in assay buffer containing a constant amount of DMSO (1% by volume). Total binding is determined using 1% by volume of DMSO in assay buffer and non-specific binding is determined using 10 μM of unlabeled PGD2 (Sigma). Human embryonic kidney (HEK) cell membranes (3.5 μg) expressing the CRTH2 receptor are incubated with 1.5 mg wheatgerm agglutinin SPA beads and 1 nM [^3H]-PGD2 (Amersham Biosciences UK Ltd) and the mixture incubated for 3 hours at room temperature. Bound [^3H]-PGD2 is detected using a Microbeta TRILUX liquid scintillation counter (Perkin Elmer). Compound IC50 value is determined using a 6-point dose response curve in duplicate with a semi-log compound dilution series. IC50 calculations are performed using Excel and XLfit (Microsoft), and this value is used to determine a Ki value for the test compound using the Cheng-Prusoff equation.

Compound	Ki [µM]
Cc1c(Cc2ccc(Cl)cc2Cl)c(OC(F)F)nc2c(F)ccc(OC(C)C(=O)O)c12 (stereo not shown) [Example 67, 2-[3-(2,4-dichlorobenzyl)-2-difluoromethoxy-8-fluoro-4-methylquinolin-5-yloxy]propionic Acid]	< 0.1
Cc1nc2c(Cl)ccc(OCC(=O)O)c2c(C)c1[S+]([O-])c1ccc(Cl)cc1 (stereo not shown) [Example 22, [8-chloro-3-(4-chlorobenzenesulfinyl)-2,4-dimethylquinolin-5-yloxy]acetic Acid]	< 0.1
CCc1nc2c(Cl)ccc(OCC(=O)O)c2c(CC)c1Cc1ccc(S(C)(=O)=O)cc1 [Example 41, [8-chloro-2,4-diethyl-3-(4-methanesulfonylbenzyl)quinolin-5-yloxy]acetic Acid]	< 0.1
Cc1c(Cc2ccc(S(C)(=O)=O)cc2)c(OC(F)F)nc2c(Cl)ccc(OCC(=O)O)c12 [Example 34, [8-chloro-2-difluoromethoxy-3-(4-methanesulfonylbenzyl)-4-methylquinolin-5-yloxy]acetic Acid]	< 0.1
Cc1nc2cc(Cl)cc(CC(=O)O)c2c(C)c1Cc1ccc(Cl)cc1 [Example 11, [7-chloro-3-(4-chlorobenzyl)-2,4-dimethylquinolin-5-yl]acetic acid]	< 0.1
Cc1c(Cc2ccc(F)cc2Cl)c(OC(F)F)nc2c(F)ccc(OCC(=O)O)c12 [Example 59, [3-(2-chloro-4-fluorobenzyl)-2-difluoromethoxy-8-fluoro-4-methylquinolin-5-yloxy]acetic Acid]	< 0.1
Cc1nc2c(Cl)ccc(OCC(=O)O)c2c(C)c1Oc1ccc(Cl)cc1 [Example 7, [8-chloro-3-(4-chlorophenoxy)-2,4-dimethylquinolin-5-yloxy]acetic Acid]	< 0.1
CCc1nc2c(F)ccc(OCC(=O)O)c2c(OC(F)F)c1Cc1ccc(S(=O)(=O)N2CCOCC2)cc1 [Example 64, {4-difluoromethoxy-2-ethyl-8-fluoro-3-[4-(morpholine-4-sulfonyl)benzyl]quinolin-5-yloxy}acetic acid]	< 0.1
Cc1c(Cc2ccc(S(C)(=O)=O)cc2Cl)c(OC(F)F)nc2c(F)ccc(OCC(=O)O)c12 [Example 46, [3-(2-chloro-4-methanesulfonylbenzyl)-2-difluoromethoxy-8-fluoro-4-methylquinolin-5-yloxy]acetic acid]	< 0.1
Cc1nc2c(Cl)ccc(CC(=O)O)c2c(C)c1Oc1ccc(Cl)cc1 [Example 15, [8-chloro-3-(4-chlorophenoxy)-2,4-dimethylquinolin-5-yl]acetic Acid]	< 0.1
Cc1c(Cc2ccc(Cl)cc2)c(OC(F)F)nc2c(Cl)ccc(OCC(=O)O)c12 [Example 57, [8-chloro-3-(4-chlorobenzyl)-2-difluoromethoxy-4-methylquinolin-5-yloxy]acetic Acid]	< 0.1
Cc1c(Cc2ccc(Cl)cc2)c(OC(F)F)nc2c(Cl)ccc(OC(C)(C)C(=O)O)c12 [Example 66, 2-[8-chloro-3-(4-chlorobenzyl)-2-difluoromethoxy-4-methylquinolin-5-yloxy]-2-methylpropionic Acid]	< 10
CCc1c(Cc2ccc(Cl)cc2)c(C)nc2c(Cl)ccc(OCC(=O)O)c12 [Example 16, [8-chloro-3-(4-chlorobenzyl)-4-ethyl-2-methylquinolin-5-yloxy]acetic acid]	< 0.1
Cc1nc2c(Cl)ccc(OCC(=O)O)c2c(OC(F)F)c1Cc1ccc(Cl)cc1 [Example 9, [8-chloro-3-(4-chlorobenzyl)-4-difluoromethoxy-2-methylquinolin-5-yloxy]acetic Acid]	< 0.1
CCc1nc2c(F)ccc(OCC(=O)O)c2c(OC(F)F)c1Cc1ccc(S(C)(=O)=O)cc1 [Example 45, [4-difluoromethoxy-2-ethyl-8-fluoro-3-(4-methanesulfonylbenzyl)-quinolin-5-yloxy]acetic Acid]	< 0.1
Cc1c(Cc2ccc(Cl)cc2)c(OC(F)F)nc2c(Cl)ccc(OC(C)C(=O)O)c12 (stereo not shown) [Example 69, 2-[8-chloro-3-(4-chlorobenzyl)-2-difluoromethoxy-4-methylquinolin-5-yloxy]propionic Acid]	< 0.1
Cc1c(Cc2ccc(S(C)(=O)=O)cc2)c(C#N)nc2c(Cl)ccc(OCC(=O)O)c12 [Example 44, [8-chloro-2-cyano-3-(4-methanesulfonylbenzyl)-4-methylquinolin-5-yloxy]acetic Acid]	< 0.1

Compound	Ki [µM]
CCc1nc2c(Cl)ccc(OCC(=O)O)c2c(OC(F)F)c1Cc1ccc(C(=O)N2CCCC2)cc1 [Example 71, {8-chloro-4-difluoromethoxy-2-ethyl-3-[4-(pyrrolidine-1-carbonyl)benzyl]quinolin-5-yloxy}acetic Acid]	< 0.1
CCc1nc2c(F)ccc(OCC(=O)O)c2c(OC(F)F)c1Cc1ccc(C(=O)N2CCCC2)cc1 [Example 65, {4-difluoromethoxy-2-ethyl-8-fluoro-3-[4-(pyrrolidine-1-carbonyl)benzyl]quinolin-5-yloxy}acetic Acid]	< 0.1
CCc1nc2c(F)ccc(OCC(=O)O)c2c(OC(F)F)c1Cc1ccc(C(=O)NC2CCC2)cc1Cl [Example 76, [3-(2-chloro-4-cyclobutylcarbamoylbenzyl)-4-difluoromethoxy-2-ethyl-8-fluoroquinolin-5-yloxy]acetic Acid]	< 0.1
CCc1nc2c(Cl)ccc(OCC(=O)O)c2c(OC(F)F)c1Cc1ccc(Cl)cc1 [Example 39, [8-chloro-3-(4-chlorobenzyl)-4-difluoromethoxy-2-ethylquinolin-5-yloxy]acetic Acid]	< 0.1
CCc1nc2c(Cl)ccc(OCC(=O)O)c2c(OC(F)F)c1Cc1ccc(Cl)cc1F [Example 62, [8-chloro-3-(4-chloro-2-fluorobenzyl)-4-difluoromethoxy-2-ethylquinolin-5-yloxy]acetic Acid]	< 0.1
Cc1nc2c(Cl)ccc(CC(=O)O)c2c(C)c1Cc1ccc(Cl)cc1 [Example 6, [8-chloro-3-(4-chlorobenzyl)-2,4-dimethylquinolin-5-yl]acetic Acid]	< 0.1
CCc1nc2c(F)ccc(O[C@@H](C)C(=O)O)c2c(OC(F)F)c1Cc1ccc(C(=O)NC2CCC2)cc1Cl [Example 77, (S)-2-[3-(2-chloro-4-cyclobutylcarbamoylbenzyl)-4-difluoromethoxy-2-ethyl-8-fluoroquinolin-5-yloxy]propionic acid]	< 0.1
Cc1nc2c(Cl)ccc(OCC(=O)O)c2c(OC(F)F)c1Sc1ccc(Cl)cc1 [Example 24, [8-chloro-3-(4-chlorophenylsulfanyl)-4-difluoromethoxy-2-methyl-quinolin-5-yloxy]acetic Acid]	< 0.1
CCc1nc2c(F)ccc(OCC(=O)O)c2c(OC(F)F)c1Cc1ccc(S(C)(=O)=O)cc1Cl [Example 47, [3-(2-chloro-4-methanesulfonylbenzyl)-4-difluoromethoxy-2-ethyl-8-fluoroquinolin-5-yloxy]acetic acid]	< 0.1
Cc1nc2c(Cl)ccc(OC(C)C(=O)O)c2c(C)c1Cc1ccc(Cl)cc1 (stereo not shown) [Example 33, 2-[8-chloro-3-(4-chlorobenzyl)-2,4-dimethylquinolin-5-yloxy]propionic Acid]	< 0.1
Cc1nc2c(Cl)ccc(OCC(=O)O)c2c(OC(C)C)c1Cc1ccc(F)cc1 [Example 32, [8-chloro-3-(4-fluorobenzyl)-4-isopropoxy-2-methylquinolin-5-yloxy]acetic Acid]	< 1
Cc1c(Cc2ccc(S(C)(=O)=O)cc2)c(OC(F)F)nc2c(F)ccc(OCC(=O)O)c12 [Example 48, [2-difluoromethoxy-8-fluoro-3-(4-methanesulfonylbenzyl)-4-methylquinolin-5-yloxy]acetic acid]	< 0.1
CCc1nc2c(F)ccc(OCC(=O)O)c2c(OC(F)F)c1Cc1ccc(F)cc1 [Example 50, [4-difluoromethoxy-2-ethyl-8-fluoro-3-(4-fluorobenzyl)quinolin-5-yloxy]acetic Acid]	< 0.1
Cc1c(Cc2ccc(Cl)cc2)c(OC(F)F)nc2c(F)ccc(OCC(=O)O)c12 [Example 30, [3-(4-chlorobenzyl)-2-difluoromethoxy-8-fluoro-4-methylquinolin-5-yloxy]-acetic Acid]	< 0.1
Cc1nc2c(Cl)ccc(OCC(=O)O)c2c(C)c1S(=O)(=O)c1ccc(Cl)cc1 [Example 21, [8-chloro-3-(4-chlorobenzenesulfonyl)-2,4-dimethylquinolin-5-yloxy]acetic Acid]	< 0.1
CC(C)c1nc2c(Cl)ccc(OCC(=O)O)c2c(OC(F)F)c1Cc1ccc(S(C)(=O)=O)cc1 [Example 43, [8-chloro-4-difluoromethoxy-2-isopropyl-3-(4-methanesulfonylbenzyl)quinolin-5-yloxy]acetic Acid]	< 0.1
Cc1cc(OCC(=O)O)c2c(C)c(Cc3ccc(Cl)cc3)c(C)nc2c1 [Example 4, [3-(4-chlorobenzyl)-2,4,7-trimethylquinolin-5-yloxy]acetic Acid]	< 1
